This note sets out measurements from ChEMBL document CHEMBL5338742, “Neurotherapeutic Potential of Water-Soluble pH-Responsive Prodrugs of EIDD-036 in Traumatic Brain Injury” (J Med Chem, 2023).

Series [1] can be described thus: Cmax in Sprague-Dawley rat at 10 mg/kg,im measured for 0.25 to 10 hrs by LC-MS/MS analysis. The series is classed as ADME, organism-based. The arrangement: time lower 0.25 hrs, dose 10 mg/kg, time upper 10 hrs, route im. As to conditions: in vivo.
Series [2] in a line: Cmax in Sprague-Dawley rat at 2 mg/kg,iv measured for 0.08 to 10 hrs by LC-MS/MS analysis. Type of series: ADME, organism-based. The arrangement: dose 2 mg/kg, time 0.08-10 hrs, route iv. As to conditions: in vivo.
Series [3] can be described thus: Cmax in Sprague-Dawley rat assessed as cmax of parent compound at 10 mg/kg,IM measured for 0.25 to 10 hrs by LC-MS/MS analysis. The series is classed as ADME, organism-based. The arrangement: time upper 10 hrs, time lower 0.25 hrs, dose 10 mg/kg, route im. As to conditions: in vivo.
Series [4] can be described thus: Cmax in Sprague-Dawley rat assessed as cmax of parent compound at 2 mg/kg,iv measured for 0.08 to 10 hrs by LC-MS/MS analysis. The arrangement: dose 2 mg/kg, time 0.08-10 hrs, route iv. As to conditions: in vivo. Type of series: ADME, organism-based.
A short description of series [5]: AUC (0-last) in Sprague-Dawley rat at 10 mg/kg, IM measured for 0.25 to 10 hrs by LC-MS/MS analysis. Also on record: time upper 10 hrs, dose 10 mg/kg, time lower 0.25 hrs, route im. As to conditions: in vivo. The series is classed as ADME, organism-based.
Series [6] in a line: AUC (0-last) in Sprague-Dawley rat at 2 mg/kg,iv measured for 0.08 to 10 hrs by LC-MS/MS analysis. The arrangement: dose 2 mg/kg, time 0.08-10 hrs, route iv. Type of series: ADME, organism-based. As to conditions: in vivo.
The nature of series [7]: AUC (0-last) in Sprague-Dawley rat assessed as AUC (0-last) of parent compound at 10 mg/kg,IM measured for 0.25 to 10 hrs by LC-MS/MS analysis. As to conditions: in vivo. Also on record: time 0.25-10 hrs, dose 10 mg/kg, route im. The series is classed as ADME, organism-based.
Series [8] in a line: AUC (0-last) in Sprague-Dawley rat assessed as AUC (0-last) of parent compound at 2 mg/kg,iv measured for 0.08 to 10 hrs by LC-MS/MS analysis. Type of series: ADME, organism-based. Also on record: dose 2 mg/kg, time upper 10 hrs, time lower 0.08 hrs, route iv. As to conditions: in vivo.
Series [9] can be described thus: Aqueous solubility of compound. As to conditions: buffer. Type of series: physicochemical.
Series [10] is described as follows: Stability of the compound in PBS buffer at pH 7.2 assessed as half life at 25 degreeC by HPLC analysis. Type of series: physicochemical.
Series [11] is described as follows: Stability in human plasma assessed as half life at 37 degreeC by LC-MS/MS analysis. Type of series: ADME, cell-free.
Series [12] in a line: Cytotoxicity against human HepG2 cells by Maestro Z Impedance Assay. Type of series: toxicity, cell-based.
Another series has as its system HepG2. The series is described as follows: Cytotoxicity against human HepG2 cells assessed as maximum cytolysis at 100 uM by Maestro Z Impedance Assay relative to control. The series is classed as toxicity, cell-based. As to conditions: hepg2, 100 µM.
Series [13] in a line: Stability of the compound in PBS buffer at pH 7.2 assessed as half life in the presence of MeCN by HPLC analysis. Type of series: physicochemical.
Series [14] is described as follows: Stability of the compound in PBS buffer at pH 7.2 assessed as half life at 37 degreeC by LC-MS/MS analysis. Type of series: physicochemical.
A short description of series [15]: Stability of the compound in PBS buffer at 4 degreeC. The series is classed as physicochemical.
Series [16] can be described thus: Stability of the compound in PBS buffer at 37 degreeC. The series is classed as physicochemical.
The nature of series [17]: Stability of the compound at pH 5. The series is classed as physicochemical. As to conditions: buffer.
Series [18] is described as follows: Stability of the compound at pH 3. Type of series: physicochemical. As to conditions: buffer.
Series [19] is described as follows: Stability of the compound in 0.1 M HCl. The series is classed as physicochemical.
Series [20] can be described thus: Stability of the compound in 0.15 M NaCl. The series is classed as physicochemical.
A short description of series [21]: Stability of the compound in 1 M NaCl. Type of series: physicochemical.
In another series the test system is Rattus norvegicus. The series is described as follows: Neuroprotective activity against Sprague-Dawley rat model of traumatic brain injury assessed as reduction in cerebral edema at 10 mg/kg, IM administered for 1 to 6 hrs measured after 24 hrs relative to control. The series is classed as functional. The arrangement: scale not given: the % may be the effect or the level left. As to conditions: time 25-30 hrs.

Series [22] can be described thus: Solubility of compound in normal saline. Type of series: physicochemical.

Structures are written as SMILES. Bounds are passed on as bounds.

Regarding `C/C(=N\OCOP(=O)([O-])[O-])[C@H]1CC[C@H]2[C@@H]3CCC4=CC(=O)CC[C@]4(C)[C@H]3CC[C@]12C.[Na+].[Na+]`, the Cmax in series [1] was 1360 ng/mL; in series [2], 182 ng/mL; in series [3], 425 ng/mL; in series [4], 219 ng/mL. Further, the figures for the AUC(0-t) in [5] and in series [6] were 724 ng·h/mL and 22 ng·h/mL, respectively. The AUClast was 753 ng·h/mL in series [7] and 48 ng·h/mL in series [8]. In addition, the solubility in series [9] is > 150 mg/mL.

With `C/C(=N\OC(=O)OCCN)[C@H]1CC[C@H]2[C@@H]3CCC4=CC(=O)CC[C@]4(C)[C@H]3CC[C@]12C.Cl`, the half-life in [10] was 0.11 h.

As for `C/C(=N\OC(=O)N(C)CCNCCF)[C@H]1CC[C@H]2[C@@H]3CCC4=CC(=O)CC[C@]4(C)[C@H]3CC[C@]12C.Cl`, the results for the half-life in [10] and in series [11] were 36.1 h and 2.2 h, respectively.

For `C/C(=N\OC(=O)NCCN)[C@H]1CC[C@H]2[C@@H]3CCC4=CC(=O)CC[C@]4(C)[C@H]3CC[C@]12C.Cl`, the half-life is > 240 h in series [10] and > 2 h in [11].

For `C/C(=N\OC(=O)OC[C@@H]1CCCN1)[C@H]1CC[C@H]2[C@@H]3CCC4=CC(=O)CC[C@]4(C)[C@H]3CC[C@]12C.Cl`, in [10], the half-life is 0.09 h.

For the molecule `C/C(=N\OC(=O)NC[C@@H]1CCCCN1)[C@H]1CC[C@H]2[C@@H]3CCC4=CC(=O)CC[C@]4(C)[C@H]3CC[C@]12C.Cl`, the half-life in [10] was > 240 h.

For the molecule `CN1C[C@@H]2CCCN2C1=O`, the CC50 in series [12] is > 100 µM. Also, the Activity in the series on HepG2 was found to be 30%.

`C/C(=N\OC(=O)N(C)CCNCCOC(F)(F)F)[C@H]1CC[C@H]2[C@@H]3CCC4=CC(=O)CC[C@]4(C)[C@H]3CC[C@]12C.Cl`: the half-life in [13] was 28.5 h; in [11], 1.7 h. In addition, the solubility in series [9] is < 1 mg/mL.

As to `C/C(=N\OC(=O)N(C)C[C@@H]1CCCN1)[C@H]1CC[C@H]2[C@@H]3CCC4=CC(=O)CC[C@]4(C)[C@H]3CC[C@]12C.Cl`, the half-life in series [10] is 1.9 h; in [14], 1.9 h; in series [15] it was 74.4 h; in series [16], 1 h; in [17], 175 h; in [18], 192 h. Further, the half-life in series [19] was 1.3 h; in [20], > 240 h; in [21], 168 h. Besides, the Cmax in [1] came out at 224 ng/mL; in series [2] it was 122 ng/mL; in [3], 954 ng/mL; in [4], 328 ng/mL. Moreover, the AUC(0-t) is 288 ng·h/mL in series [5] and 62.9 ng·h/mL in series [6]. Further, the AUClast in [7] came out at 1304 ng·h/mL; in series [8] it was 176 ng·h/mL. The Activity in the series on Rattus norvegicus amounted to 40%. Moreover, in series [22], the solubility was > 50 mg/mL.

For `C/C(=N\OC(=O)N(C)CCNCCO)[C@H]1CC[C@H]2[C@@H]3CCC4=CC(=O)CC[C@]4(C)[C@H]3CC[C@]12C.Cl`, the results for the half-life in series [10] and in series [11] were 30.4 h and 2.8 h, respectively.

With `CNCCN(CCO)C(=O)O/N=C(\C)[C@H]1CC[C@H]2[C@@H]3CCC4=CC(=O)CC[C@]4(C)[C@H]3CC[C@]12C.Cl`, the figures for the half-life in series [10] and in series [11] were 24.8 h and 1.6 h, respectively.

Take `C/C(=N\OC(=O)OCCN(C)C)[C@H]1CC[C@H]2[C@@H]3CCC4=CC(=O)CC[C@]4(C)[C@H]3CC[C@]12C.Cl`: the figures for the half-life in [10] and in series [11] were 3.5 h and 7.2 h, respectively.

On to `CNCCN(C)C(=O)O/N=C(\C)[C@H]1CC[C@H]2[C@@H]3CCC4=CC(=O)CC[C@]4(C)[C@H]3CC[C@]12C.Cl`, for which the values for the half-life in series [10] and in series [11] were 46.9 h and 2.7 h, respectively.

With `C/C(=N\OC(=O)NCCN(C)C)[C@H]1CC[C@H]2[C@@H]3CCC4=CC(=O)CC[C@]4(C)[C@H]3CC[C@]12C.Cl`, the half-life in series [10] is > 240 h; in series [11], > 3.5 h.

Regarding `CNCC(C)(C)CN(C)C(=O)O/N=C(\C)[C@H]1CC[C@H]2[C@@H]3CCC4=CC(=O)CC[C@]4(C)[C@H]3CC[C@]12C.Cl`, the half-life in [10] was > 240 h; in series [11], > 4 h.

As to `C/C(=N\OC(=O)N(C)C[C@@H]1CCCCN1)[C@H]1CC[C@H]2[C@@H]3CCC4=CC(=O)CC[C@]4(C)[C@H]3CC[C@]12C.Cl`, the half-life in series [10] was > 240 h.

Regarding `C/C(=N\OC(=O)[C@@H](N)C(C)C)[C@H]1CC[C@H]2[C@@H]3CCC4=CC(=O)CC[C@]4(C)[C@H]3CC[C@]12C.Cl`, the half-life in [10] was 11 h. This molecule yielded a solubility in [9] of 146 µM.

Regarding `CC(=O)[C@H]1CC[C@H]2[C@@H]3CCC4=C/C(=N/OC(=O)[C@@H](N)C(C)C)CC[C@]4(C)[C@H]3CC[C@]12C.Cl`, the half-life in [10] was 10 h. For the same molecule, the solubility in series [9] is 172 µM.

Regarding `C/C(=N\OC(=O)N(C)C[C@@H]1CCCN1C)[C@H]1CC[C@H]2[C@@H]3CCC4=CC(=O)CC[C@]4(C)[C@H]3CC[C@]12C.Cl`, the half-life in series [14] is > 2 h; in [11], 0.9 h.

`C/C(=N\OC(=O)NC[C@@H]1CCCN1)[C@H]1CC[C@H]2[C@@H]3CCC4=CC(=O)CC[C@]4(C)[C@H]3CC[C@]12C.Cl`: the half-life was > 240 h in [10] and > 4 h in series [11].

For the molecule `C/C(=N\OC(=O)N1CCC[C@H]1CN)[C@H]1CC[C@H]2[C@@H]3CCC4=CC(=O)CC[C@]4(C)[C@H]3CC[C@]12C.Cl`, the half-life is > 240 h in series [10] and > 4 h in [11].

Take `CNCCCN(C)C(=O)O/N=C(\C)[C@H]1CC[C@H]2[C@@H]3CCC4=CC(=O)CC[C@]4(C)[C@H]3CC[C@]12C.Cl`: the half-life in series [10] is > 240 h; in series [11] it was > 4 h.

For `CNC[C@@H]1CCCN1C(=O)O/N=C(\C)[C@H]1CC[C@H]2[C@@H]3CCC4=CC(=O)CC[C@]4(C)[C@H]3CC[C@]12C.Cl`, the half-life in [10] was > 240 h; in series [11], > 4 h.
